Experimental data from US11168052B2, “Carbamate derivative compounds, processes for preparing them and their uses” (BIO-PHARM SOLUTIONS CO., LTD., priority 2016, dated 2021).

Assays:
[1] = system: MES (electroshock) seizure in mice; assay: Anti-epilepsy activity, MES test in mouse; assay type: in vivo, ICR mice; conditions: po
Method in brief: (§1)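 Male ICR mice (19–25 g) and male SD rats (100–130 g) dosed orally with compound in 20% Tween 80/saline, then shocked via corneal electrodes at peak time (mice 50 mA, rats 150 mA; 60 Hz, 0.2 sec). Three doses used; ED50 for seizure protection by Litchfield–Wilcoxon log-probit.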

[2] = system: acetic acid-induced writhes in ICR mice; assay: Writhing test (acetic acid); assay type: in vivo; conditions: Mus musculus, po
Method: To examine the pain relief effect of the carbamate compounds, a writhing test was conducted, referring to Fischer, L. G. et al. (2008).
ICR mice (male, 24-28g; Orient Bio, Korea) were habituated before test (in test room) for 1 hour. Animals were fasted 2 hr before administration of compounds. Each of compounds was orally administered at the three dose, 10 ul/g, bw (n=3-5/group). All compounds were dissolved in a vehicle of 30% (v/v) PEG 400 or 20% (v/v) Tween 80. The control group was treated the vehicle without compounds.
0.2-2 hour after the administration of compounds, 0.6% acetic acid at the dose of 10 ul/g by bodyweight was injected into the mice Animals were habituated in the cage for 5 min. 5 min after habituation, the number of writhes (abdominal constriction) was counted for 15 min, referring to Korzeniewska-Rybicka, I. et al. (1998) and compared with that of a control.
The relative values compared to the control (% control) were calculated and shown in […]

SNL model in rats = assay: Antiallodynic activity on Chung model (SNL, spinal nerve ligation), von Frey test; assay type: in vivo, Sprague-Dawley rats; conditions: orally
Text: Male Sprague-Dawley rats (100-130 g, Orient Bio, Korea) were habituated for 1 week before the experiment, and allowed free access to food and water throughout the experimentation. Room temperature and humidity were maintained at 24±2 and 50±10%, respectively. The neuropathic surgery (SNL, Spinal nerve ligation) model was done as described in Kim and Chung (1992). Briefly, an animal was put under gaseous anesthesia with isoflurane. The left lumber spinal nerve L5 and L6 were isolated and tightly ligated with 6-0 silk thread. […]
Tactile sensitivity (Mechanical allodynia) was evaluated using von Frey monofilaments before and after treatment, and animals were included in the study only if the withdrawal threshold value was less than 4 g. […] The tactile sensitivity for the ipsilateral hind paw was measured using the up-and-down method (Dixon, 1980) with seven von Frey monofilaments (0.4, 1, 2, 4, 6, 8, and 15 g) in 3 trials. […] The 50% paw withdrawal threshold for each paw was calculated using the following formula: [Xth]log=[vFr]log+ky where [vFr] is the force of the last von Frey used, k=0.2249 which is the average interval (in log units) between the von Frey monofilaments, and y is a value that depends upon the pattern of withdrawal responses (Dixon, 1980). […]

[3] = system: MES (electroshock) seizure in rats; assay: Anti-epilepsy activity, MES test in rats; assay type: in vivo, SD rats; conditions: Rattus norvegicus, po
Method in brief: as §1

[4] = system: Lithium-pilocarpine induced seizure in rats; assay: Lithium-pilocarpine induced epilepsy test (LI-PILO), prevention test; assay type: in vivo, Sprague-Dawley rats
Method in brief: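 Male Sprague-Dawley rats (175 g) received lithium chloride 127 mg/kg i.p., then pilocarpine 30-43 mg/kg i.p. 18-20 h later, with methyl-scopolamine 2 mg/kg given 30 min before pilocarpine. Test drugs in 20% Tween80 were given i.p. 0.5-4 h beforehand (n=6). Protection meant no Racine grade 3-5 seizure over 90 min, and ED50 was determined at peak time.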

NC(=O)O[C@@H]1c2c(Cl)cccc2CC[C@@H]1O [Example 19, (1R, 2S)-8-chloro-2-hydroxy-1,2,3,4-tetrahydronaphthalen-1-yl carbamate] was tested, and the ED50 [1] was 22.4 mg/kg, the ED50 [2] was 30 mg/kg and the SNL efficacy % (SNL model in rats; dose 30 mg/kg) was 30(17.8%). The ED50 [3] was 4.6 mg/kg and the “Lithium pilocarpine model (pre) efficacy %” value ([4]; i.p., dose 50 mg/kg) was 50%.

Work on NC(=O)O[C@@H]1CCc2cccc(Cl)c2[C@@H]1O [Example 1, (1S, 2R)-8-chloro-1-hydroxy-1,2,3,4-tetrahydronaphthalen-2-yl carbamate] yielded an ED50 [1] of 12.1 mg/kg, an ED50 [2] of 46.1 mg/kg and an ED50 (SNL model in rats; Rattus norvegicus, po, von Frey threshold relative to sham) of 35.5 mg/kg. It also gave an ED50 [3] of 5.9 mg/kg and an ED50 ([4]; Rattus norvegicus, ip, prevention, read-out: Lithium pilocarpine model (pre) ED50) of 22 mg/kg.
